This is an account of results in patent US10675269B2, “Compositions comprising melatonin” (TRINUTRA LTD., priority 2016, dated 2020).

One experiment relates to RAW 264.7 cells. Briefly: Nitric oxide (NO) release from LPS-activated RAW 264.7 cells, Griess Reagent System. The note with it: for inhibition of NO production when compared with the LPS-stimulated baseline cells: 1.3 μM valerenic acid. Format: cell-based, murine. Here is the method:
The objective of the studies reported in working examples 1-5 hereinbelow was to evaluate the anti-inflammatory properties of Melatonin, carnosic acid (Rosemary extract), Valerenic acid and combinations thereof on a cell line derived from murine macrophages (RAW 264.7 cells) activated by lipopolysaccharide (LPS).
10^5 RAW 264.7 cells were seeded in 96-well plates in a medium containing 1% FBS, 1% Glutamine and 1% Pen/strep in DMEM.
For dose response assays, cells were treated with 2-fold concentrations of Melatonin (starting from 15.6 μM up to 1000 μM LOT # XPS150311, Yes Pharma), Rosemary extract (0.1, 0.2, 0.4, 1, 2, 4, or 10 μM, Product #302659, Batch # LAB.16-659001, Vitiva) or 10% Valerenic acid (starting from 1.56 mg/ml up to 100 mg/ml, Batch # IWTC/5949/15001, Indo World Trading Corporation) for 6 hours. Then, the test solutions were removed and the cells were induced with lipopolysaccharide (LPS) (5 ng/ml). In addition, positive control cells were treated with 10 μM dexamethasone. Nitric oxide (NO) release was measured after incubation at 37° C., 5% CO2 using a Griess Reagent System. The method is based on the chemical diazotization reaction that was originally described by Griess in 1879, which uses sulfanilamide and N-1-napthylethylenediamine dihydrochloride (NED) under acidic (phosphoric acid) conditions. This system detects NO2^− in a variety of biological and experimental liquid matrices such as tissue culture medium that was tested in this study.
For combination assays, cells were treated with various concentrations of Melatonin, Rosemary extract (containing 25% carnosic acid) and 10% Valerenic acid, at the final concentration indicated in each experiment, hereinbelow, for 22 hours together with LPS induction (5 ng/ml). […] In addition, positive control cells were treated with 10 μM dexamethasone. Nitric oxide (NO) release was tested after incubation at 37° C., 5% CO2 using the Griess Reagent System.

The subject of another experiment is rats. Kind of experiment: Open field center time, base-line and caffeine-relaxed rats. The class given is in vivo, rat. The note with it: FIG. 4; caffeine-relaxed rats. The protocol:
As in Example 3, above, open field tests were used to measure the anxiolytic effects of melatonin, valerian and a combination of these two substances. However, in some of the rats in the present study, the effect of the test substances was measured in rats which had also received caffeine. Thus, while the study reported in Example 3 provided insights into the effect of melatonin and valerian on base-line anxiety, the results obtained in this study relate to the effect of these substances on both base-line and caffeine-induced (“caffeine-relaxed”) subjects. The same open-field method was used as in Example 3. However, in this study, the parameter that was measured was the “center time” that is, the time that the rats spend in the center of tested arena. The center time was used as an index for the anxiolytic effect of the test substances in both “base-line” and “caffeine-relaxed” rats.

In a further experiment the test system is laboratory rats. Briefly: Open field spontaneous activity (mobility time), anxiolytic effect. Format: in vivo, rat. The note with it: FIG. 3, 15 minute session, 30 minutes after administration. Here is the method:
Open field tests were used as a measure of the spontaneous activity of laboratory rats, in order to measure the anxiolytic effects of melatonin, valerian and a combination of these two substances. Rats were placed in a behavioral room one hour before testing procedures, for purpose of habituation. Activity was tested in open boxes (open-fields: 80 cm wide, 80 cm large, 60 cm high) made of transparent Plexiglas. Animals were individually placed in the open-fields for 15 minute sessions. The following parameters were recorded: Indices of motor exploratory activity: the distance traveled, mobility time, Open Field spontaneous activity is performed on the testing day, 30 minutes after the administration of a test substance (melatonin, valerian, a combination of the two, or vehicle). • Indices of habituation: distance traveled. • During the last 5 minute period in percent of the first as last 5 minute periods. • Indices of anxiety: • Percentage of distance traveled in the central zone of the open-field. • Percentage of time spent in the central zone of the open-field.

[1] abbreviates: Example 1, FIG. 1, tested separately: 0.5 μM Melatonin, 0.7 μM carnosic acid, 22 hours together with 5 ng/ml LPS.
Where [2] appears, read: Example 2, tested separately: 0.05 μM Melatonin, 0.07 μM carnosic acid, 5 ng/ml LPS.

On to `CC1=C2[C@H](/C=C(\C)C(=O)O)CC[C@@H](C)[C@H]2CC1` [valerenic acid], for which the “inhibition of NO production when compared with the LPS-stimulated baseline cells” value in the experiment on RAW 264.7 cells (setting [1]) and in the experiment on RAW 264.7 cells (setting [2]) was “none of the following individual components produced any significant inhibition” each time.

Consider `COc1ccc2[nH]cc(CCNC(C)=O)c2c1` [Melatonin, N-acetyl-5-methoxytryptamine], for which the “inhibition of NO production when compared with the LPS-stimulated baseline cells” value in the experiment on RAW 264.7 cells (setting [1]) and in the experiment with RAW 264.7 cells (setting [2]) was “none of the following individual components produced any significant inhibition” each time. Moreover, the “caffeine induced center motility” value in the experiment on rats is “only valerian (both when used separately and when combined with melatonin) affected caffeine induced center motility”. Also, the “mobility time in comparison to the vehicle control” value in the experiment with laboratory rats is recorded as “increased the mobility time”.

Consider `C[C@@H]1C[C@H]2[C@@H]3CCC4=CC(=O)C=C[C@]4(C)[C@@]3(F)[C@@H](O)C[C@]2(C)[C@@]1(O)C(=O)CO` [dexamethasone], for which, in the experiment with RAW 264.7 cells (Example 1, FIG. 1 column 2, positive control 10 μM dexamethasone, 5 ng/ml LPS, LPS-stimulated untreated cells 40 μM), the “NO production by the cultured cells” value was determined as 30 µM.

In the case of `CC(C)c1cc2c(c(O)c1O)[C@@]1(C(=O)O)CCCC(C)(C)[C@@H]1CC2` [carnosic acid], the “inhibition of NO production when compared with the LPS-stimulated baseline cells” value in the experiment with RAW 264.7 cells (setting [1]) and in the experiment on RAW 264.7 cells (setting [2]) was “none of the following individual components produced any significant inhibition” each time.
